The results in this text go back to ChEMBL document CHEMBL1821572, “Discovery of a novel series of selective HCN1 blockers” (Bioorg Med Chem Lett, 2011).

For assay [1], the target named is T1, Potassium/sodium hyperpolarization-activated cyclic nucleotide-gated channel 2 (Homo sapiens, UniProt Q9UL51).
T1 sequence (Q9UL51 whole entry): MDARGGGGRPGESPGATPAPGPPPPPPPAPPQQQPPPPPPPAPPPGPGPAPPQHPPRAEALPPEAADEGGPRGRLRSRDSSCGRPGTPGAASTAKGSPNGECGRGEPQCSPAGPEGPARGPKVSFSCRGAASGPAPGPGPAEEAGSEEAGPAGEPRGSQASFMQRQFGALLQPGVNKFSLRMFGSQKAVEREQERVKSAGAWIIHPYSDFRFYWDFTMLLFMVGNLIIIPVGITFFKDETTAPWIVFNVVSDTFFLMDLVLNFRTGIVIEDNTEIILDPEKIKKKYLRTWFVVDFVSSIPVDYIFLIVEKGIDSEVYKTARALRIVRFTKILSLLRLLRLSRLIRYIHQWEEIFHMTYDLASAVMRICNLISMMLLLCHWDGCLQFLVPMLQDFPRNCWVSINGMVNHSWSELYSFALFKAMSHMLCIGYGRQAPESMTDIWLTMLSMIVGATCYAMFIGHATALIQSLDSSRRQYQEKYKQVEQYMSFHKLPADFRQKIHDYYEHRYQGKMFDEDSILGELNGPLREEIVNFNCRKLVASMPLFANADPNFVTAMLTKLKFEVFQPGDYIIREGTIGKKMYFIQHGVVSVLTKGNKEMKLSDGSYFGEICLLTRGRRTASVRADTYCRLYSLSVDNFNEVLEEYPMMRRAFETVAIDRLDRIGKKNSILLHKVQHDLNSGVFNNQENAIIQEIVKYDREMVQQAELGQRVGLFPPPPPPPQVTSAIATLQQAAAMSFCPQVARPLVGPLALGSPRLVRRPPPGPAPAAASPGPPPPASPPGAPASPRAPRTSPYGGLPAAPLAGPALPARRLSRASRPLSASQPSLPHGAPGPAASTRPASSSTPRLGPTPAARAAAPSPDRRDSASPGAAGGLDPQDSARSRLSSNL
Description: Inhibition of human HCN2 heterologously expressed in HEK-293 cells after 30 mins by VIPR assay. The class given is cell-based, HEK293.

Assay [2] deals with Mus musculus. Description: Antiallodynic activity in ip dosed C57BL/6 mouse spared-nerve injury model assessed as reduction of tactile allodynia after 60 mins. The class given is functional. The conditions noted are these: C57BL/6, ip, 1 h.

The term IC50 denotes the concentration at which inhibition is half-maximal. A high value points to lower potency. The term ED50 denotes the dose at which the effect has come halfway, by size or by number of responders. `CCOc1ccccc1C(=O)NCC1(N2CCNCC2)CCCCC1` gave a half-inhibitory concentration (IC50) in assay [1] of 5.01 µM. Besides, the 50% effective dose (ED50) in assay [2] was found to be 6 mg/kg.
